Assay: refractive index (other wavelength) (dimensionless); xn = mol fraction of the nth substance listed
Conditions: 85 kPa, Liquid, Wavelength=632.8 nm, minimum deviation angle

CCCCCCCC[n+]1ccn(C)c1.F[B-](F)(F)F [1-methyl-3-octylimidazolium tetrafluoroborate] + CCCCCCO
Conditions | refractive index
289.88 K, x1 = 0.004 | 1.4182
289.88 K, x1 = 0.354 | 1.4268
290.62 K, x1 = 0.007 | 1.418
290.62 K, x1 = 0.346 | 1.4264
291.35 K, x1 = 0.01 | 1.4178
291.35 K, x1 = 0.338 | 1.426
292.06 K, x1 = 0.009 | 1.4175
292.06 K, x1 = 0.325 | 1.4255
292.78 K, x1 = 0.011 | 1.4173
292.78 K, x1 = 0.317 | 1.4251
293.48 K, x1 = 0.014 | 1.4171
293.48 K, x1 = 0.31 | 1.4247
294.37 K, x1 = 1 | 1.4327
294.83 K, x1 = 0.018 | 1.4167
294.83 K, x1 = 0.289 | 1.4238
295.51 K, x1 = 0.02 | 1.4165
295.51 K, x1 = 0.282 | 1.4234
295.86 K, x1 = 1 | 1.4323
296.12 K, x1 = 0.021 | 1.4163
296.12 K, x1 = 0.269 | 1.4229
296.61 K, x1 = 0.024 | 1.4162
296.61 K, x1 = 0.263 | 1.4226
297.04 K, x1 = 0.026 | 1.4161
297.04 K, x1 = 0.252 | 1.4222
297.21 K, x1 = 1 | 1.4319
297.39 K, x1 = 0.027 | 1.416
297.39 K, x1 = 0.245 | 1.4219
297.66 K, x1 = 0.031 | 1.416
297.66 K, x1 = 0.24 | 1.4217
297.92 K, x1 = 0.034 | 1.416
297.92 K, x1 = 0.236 | 1.4215
298.17 K, x1 = 0.034 | 1.4159
298.17 K, x1 = 0.227 | 1.4212
298.38 K, x1 = 0.037 | 1.4159
298.38 K, x1 = 0.222 | 1.421
298.57 K, x1 = 0.042 | 1.416
298.57 K, x1 = 0.221 | 1.4209
298.73 K, x1 = 0.044 | 1.416
298.73 K, x1 = 0.219 | 1.4208
298.88 K, x1 = 0.046 | 1.416
298.88 K, x1 = 0.213 | 1.4206
298.93 K, x1 = 1 | 1.4313
299.01 K, x1 = 0.045 | 1.4159
299.01 K, x1 = 0.207 | 1.4204
299.12 K, x1 = 0.049 | 1.416
299.12 K, x1 = 0.208 | 1.4204
299.21 K, x1 = 0.05 | 1.416
299.21 K, x1 = 0.202 | 1.4202
299.37 K, x1 = 0.056 | 1.4161
299.37 K, x1 = 0.196 | 1.42
299.44 K, x1 = 0.057 | 1.4161
299.44 K, x1 = 0.193 | 1.4199
299.5 K, x1 = 0.061 | 1.4162
299.5 K, x1 = 0.194 | 1.4199
299.55 K, x1 = 0.061 | 1.4162
299.55 K, x1 = 0.191 | 1.4198
299.6 K, x1 = 0.062 | 1.4162
299.6 K, x1 = 0.188 | 1.4197
299.66 K, x1 = 0.063 | 1.4162
299.66 K, x1 = 0.184 | 1.4196
299.7 K, x1 = 0.067 | 1.4163
299.7 K, x1 = 0.181 | 1.4195
299.74 K, x1 = 0.067 | 1.4163
299.74 K, x1 = 0.178 | 1.4194
299.79 K, x1 = 0.071 | 1.4164
299.79 K, x1 = 0.175 | 1.4193
299.83 K, x1 = 0.075 | 1.4165
299.83 K, x1 = 0.175 | 1.4193
299.86 K, x1 = 0.075 | 1.4165
299.86 K, x1 = 0.172 | 1.4192
299.9 K, x1 = 0.079 | 1.4166
299.9 K, x1 = 0.169 | 1.4191
299.95 K, x1 = 0.083 | 1.4167
299.95 K, x1 = 0.165 | 1.419
299.97 K, x1 = 0.084 | 1.4167
299.97 K, x1 = 0.158 | 1.4188
299.99 K, x1 = 0.087 | 1.4168
299.99 K, x1 = 0.155 | 1.4187
300 K, x1 = 0.091 | 1.4169
300 K, x1 = 0.155 | 1.4187
300.02 K, x1 = 0.091 | 1.4169
300.02 K, x1 = 0.148 | 1.4185
300.03 K, x1 = 0.095 | 1.417
300.03 K, x1 = 0.148 | 1.4185
300.04 K, x1 = 0.098 | 1.4171
300.04 K, x1 = 0.144 | 1.4184
300.05 K, x1 = 0.102 | 1.4172
300.05 K, x1 = 0.141 | 1.4183
300.06 K, x1 = 0.102 | 1.4172
300.06 K, x1 = 0.105 | 1.4173
300.06 K, x1 = 0.109 | 1.4174
300.06 K, x1 = 0.134 | 1.4181
300.06 K, x1 = 0.137 | 1.4182
300.06 K, x1 = 0.141 | 1.4183
300.67 K, x1 = 1 | 1.4309
301.31 K, x1 = 0.1 | 1.4166
302.86 K, x1 = 0.1 | 1.416
302.95 K, x1 = 1 | 1.4303
303.16 K, x1 = 0.2 | 1.4188
304.31 K, x1 = 0.2 | 1.4183
304.45 K, x1 = 0.1 | 1.4155
304.54 K, x1 = 0.4 | 1.4225
304.54 K, x1 = 0.497 | 1.4239
304.6 K, x1 = 1 | 1.4298
305 K, x1 = 0.3 | 1.4202
305.51 K, x1 = 0.2 | 1.4179
305.52 K, x1 = 0.6 | 1.4251
305.52 K, x1 = 0.699 | 1.4263
305.69 K, x1 = 0.497 | 1.4236
305.73 K, x1 = 0.4 | 1.4221
305.93 K, x1 = 0.3 | 1.4199
306.12 K, x1 = 0.1 | 1.4148
306.24 K, x1 = 1 | 1.4293
306.66 K, x1 = 0.2 | 1.4175
306.68 K, x1 = 0.699 | 1.426
307.04 K, x1 = 0.6 | 1.4247
307.07 K, x1 = 0.3 | 1.4196
307.1 K, x1 = 0.891 | 1.428
307.23 K, x1 = 0.4 | 1.4216
307.73 K, x1 = 0.497 | 1.4229
307.83 K, x1 = 0.1 | 1.4142
307.92 K, x1 = 0.2 | 1.417
308.25 K, x1 = 0.699 | 1.4255
308.37 K, x1 = 0.798 | 1.4267
308.59 K, x1 = 0.6 | 1.4242
308.7 K, x1 = 0.3 | 1.419
308.74 K, x1 = 0.4 | 1.4211
308.75 K, x1 = 0.891 | 1.4276
309.13 K, x1 = 0.497 | 1.4225
309.18 K, x1 = 0.1 | 1.4137
309.19 K, x1 = 0.2 | 1.4165
309.66 K, x1 = 0.798 | 1.4264
309.72 K, x1 = 0.699 | 1.4251
310.02 K, x1 = 0.6 | 1.4237
310.19 K, x1 = 0.891 | 1.4272
310.59 K, x1 = 0.3 | 1.4184
310.6 K, x1 = 0.4 | 1.4204
310.63 K, x1 = 0.798 | 1.4261
310.77 K, x1 = 0.497 | 1.422
311.29 K, x1 = 0.699 | 1.4246
311.31 K, x1 = 0.891 | 1.4268
311.64 K, x1 = 0.6 | 1.4233
312.14 K, x1 = 0.3 | 1.4179
312.14 K, x1 = 0.4 | 1.4199
312.15 K, x1 = 0.798 | 1.4257
312.81 K, x1 = 0.699 | 1.4242
312.9 K, x1 = 0.497 | 1.4214
312.9 K, x1 = 0.6 | 1.4229
313.38 K, x1 = 0.891 | 1.4263
313.81 K, x1 = 0.798 | 1.4253
315.28 K, x1 = 0.798 | 1.4248
315.28 K, x1 = 0.891 | 1.4258
